{"source": "patent US20170266292A1", "about": "“LIPIDIC COMPOUND-TELODENDRIMER HYBRID NANOPARTICLES AND METHODS OF MAKING AND USES THEREOF” (The Research Foundation for The State University of New York, priority 2016, published 2017)", "key": {"[1]": {"tested_on": "orthotopic human U87 GBM tumors", "experiment": "Intracranial distribution of proteins after CED", "assay_type": "in vivo, mouse", "conditions": "one day after CED; protein/NP 1/10; confocal microscopy", "description": "Intracranial Orthotopic GBM Tumor Model. Female athymic nude mice (NCRNU-Sp/Sp), 6-7 weeks age, were purchased from Taconic Biosciences (Germantown, N.Y.). All animals were kept under pathogen-free conditions according to Association for Assessment and Accreditation of Laboratory Animal Care (AAALAC) guidelines and were allowed to acclimatize for at least 4 days prior to any experiments. All animal experiments were performed in compliance with institutional guidelines and according to protocol approved by the Committee for the Humane Use of Animals of State University of New York Upstate Medical University. Athymic nude mice were anesthetized with ketamine/xylazine (80 mg/kg: 5 mg/kg) through an intraperitoneal injection. The mice were then placed in a stereotactic head frame. Using aseptic technique, a midline skin incision was made a 0.5 mm anterior to bregma and 2.5 mm lateral of midline, a burr hole will be placed. A 25G needle delivered U87 (GBM) tumor cells 3.2 mm deep via the stereotactic head frame. Approximately 5×10^4 cells (in 1 μL of PBS) will be injected. This injection will occur over the course of 5 minutes. […]\nCED Administration of Protein Formulations. […] For bioluminescence image analysis, the associated bioluminescence intensities were determined by Living Image software (Caliper Life Sciences) using operator-defined regions of interest (ROI) measurements."}, "[2]": {"experiment": "Zeta potential of lipidoid-telodendrimer hybrid NPs", "assay_type": "physicochemical", "conditions": "lipidoid alone", "description": "(§1) Formulation of Lipidoid-Telodendrimer Nanoparticles. Nanoparticles were formed by mixing lipidoids and/or telodendrimers at required mass ratios in a solution of 90% ethanol and 10% 10 mM sodium citrate (by volume). Particle solutions were diluted with 10 times volume of phosphate buffered saline (PBS, 1×), and dialyzed against PBS (1×) for 4 h. The particle solution was then mixed with proteins at a ratio of 1/10 (protein/nanoparticle, w/w) to form nanoparticle-protein complex. The complex solution was then stored in sealed vessels at 4° C. for 1 day before use. For Mcl-1 inhibitor-loaded nanoparticle preparation, the Mcl-1 inhibitor, lipidoids and telodendrimers were in a solution of 90% ethanol and 10% 10 mM sodium citrate (by volume). Particle solutions were diluted with 10 times volume of PBS, yielding Mcl-1 inhibitor-loaded lipidoid-telodendrimer nanoparticles.\n(§2) Characterization. Proton NMR spectrum was recorded on a Bruker AVANCE 600 MHz spectrometer. MALDI-TOF mass spectrum was recorded on a Bruker REFLEX-III instrument. Dynamic light scattering (DLS) studies were performed using a Zetatrac (Microtrac Inc.) instrument, and the area-based mean particle sizes were presented. Zeta potential measurements were carried out on a Malvern Nano-ZS zetasizer at room temperature. […] UV-vis spectra were recorded on a Thermo Scientific Nanodrop 2000c spectrophotometer."}, "[3]": {"experiment": "DLS hydrodynamic diameter of lipidoid-telodendrimer hybrid NPs", "assay_type": "physicochemical", "conditions": "lipidoid alone", "description": "as §1, §2"}, "U87 cells [4]": {"tested_on": "U87 cells", "experiment": "MTS cell viability assay on U87 cells", "assay_type": "cell-based, human", "conditions": "72 h continuous incubation", "description": "Cell Culture and MTS Assays. The human glioblastoma multiforme (GBM) cell lines U87 and LN229, as well as the colon cancer cell line HT-29 cell line were purchased from American Type Culture Collection (ATCC, Manassas, Va., U.S.A.). U138 cell line established from human patients diagnosed with GBM. All cells were cultured in McCoy's 5 A medium supplemented with 10% fetal bovine serum (FBS), 100 U/mL penicillin G, and […] streptomycin at 37° C. using a humidified 5% CO2 incubator. Various formulations of proteins with different dilutions were added to the plate and then incubated in a humidified 37° C., 5% CO2 incubator. After a 72 h continuous incubation, a mixture solution composed of CellTiter 96 AQueous MTS, and an electron coupling reagent, PMS, was added to each well according to the manufacturer's instructions. The cell viability was determined by measuring absorbance at 490 nm using a microplate reader (BioTek Synergy 2). Untreated cells served as the control. Results were shown as the average cell viability [100%×(ODtreat−ODblank)/(ODcontrol−ODblank)] of triplicate wells. The cells were also treated with blank nanoparticles in PBS (1×) and blank lipidoids in a mixture of cremophor/ethanol (v:v=1:1) with different dilutions and incubated for a total of 72 h to evaluate nanoparticle-related toxicity."}, "HT-29 cells": {"tested_on": "HT-29 cells", "experiment": "Cellular uptake of protein-incorporated nanoparticles, HT-29 cells", "assay_type": "cell-based, human", "conditions": "2 h at 37° C., FITC approx. 1 μg/mL", "description": "(§3) Cellular Uptake of Protein-Incorporated Nanoparticles. The cellular uptake and intracellular trafficking of the protein-incorporated nanoparticles were determined by fluorescence microscopy. FITC-BSA was used as a model protein. HT-29 and U87 cells were seeded in chamber slide with a density of 5×10^4 cells per well in 350 μL of McCoy's 5 A and cultured for 24 h. The original medium was replaced with free FITC-BSA and FITC-BSA-loaded nanoparticles at final FITC a concentration of 1 or 3 μg/mL at 37° C. After a 2 h incubation, the cells were washed three times with cold PBS (1×) and fixed with 4% formaldehyde for 10 min at room temperature, and the cell nuclei were stained with DAPI. The slides were mounted with cover slips and cells were imaged with a Leica fluorescence microscope or a Nikon FV1000 laser scanning confocal scanning microscope. The mean fluorescence density in cells (unit: pixel^−1) was calculated using the following equation: […]"}, "[5]": {"experiment": "Protein release from agarose gels (0.6% wt)", "assay_type": "physicochemical", "conditions": "FITC-BSA from agarose gels (0.6% wt) immersed in PBS", "description": "Protein Release from Agarose Gels. Free FITC-BSA and FITC-BSA-incorporated lipidoid-telodendrimer hybrid nanoparticles (1/10, FITC-BSA/nanoparticle, w/w) were loaded in agarose gels of a concentration of 0.6% wt. The sample-loaded agarose gels were immersed in PBS (1×) with shaking for protein release assays. The concentration of released FITC-BSA at various time points was measured by fluorescence spectroscopy employing a pre-established calibration equation. The release medium was replaced with fresh medium. The accumulated protein release was reported as the means for each triplicate sample."}, "U87 cells [6]": {"tested_on": "U87 cells", "experiment": "Cellular uptake of protein-incorporated nanoparticles, U87 cells", "assay_type": "cell-based, human", "conditions": "2 h at 37° C.", "description": "as §3"}}, "data": [{"molecule": "free Cy5-BSA: near-infrared fluorescence dye-labeled BSA (Cy5-BSA), model protein", "values": [{"measurement": "distribution in brain sections containing U87 tumors (fluorescence)", "setting": "[1]", "result": "no obvious fluorescent signals"}]}, {"molecule": "CCCCCCCCCCCCCCC(O)CN(C)CCCN(C)CC(O)CCCCCCCCCCCCCC", "note": "(centres unmarked) [lipidoid, 1,1′-(propane-1,3-diylbis(methylazanediyl))bis(hexadecan-2-ol)]", "values": [{"measurement": "ζ-potential of lipidoid NPs", "setting": "[2]", "result": "+8 mV"}, {"measurement": "particle size of lipidoid NPs", "setting": "[3]", "result": "~129", "unit": "nm"}, {"measurement": "cytotoxicity of blank nanoparticles / lipidoid", "setting": "U87 cells [4]", "result": "toxicity was observed"}]}, {"molecule": "free FITC-BSA: fluorescein isothiocyanate (FITC) labeled BSA, model protein", "values": [{"measurement": "cellular uptake efficiency (semi-quantitative, mean fluorescence intensity)", "setting": "HT-29 cells", "result": "closes to zero"}, {"measurement": "time within which ~50% of the proteins released", "setting": "[5]", "result": "≤ 2", "unit": "h"}, {"measurement": "cellular uptake efficiency (semi-quantitative, mean fluorescence intensity)", "setting": "U87 cells [6]; FITC approx. 1 μg/mL", "result": "closes to zero"}, {"measurement": "cellular uptake (confocal laser fluorescence microscopy)", "setting": "U87 cells [6]; FITC approx. 3 μg/mL", "result": "very low"}]}]}
